In patent publication US6673625B2, “Saccharide sensing molecules having enhanced fluorescent properties” (The Regents of the University of California, priority 1999, dated 2004):

Tests used:
[1] = Fluorescence pH switching; details: for change in fluorescence: pH changed from 11 to 2
Procedure: Samples for fluorescence were prepared as 1.00 mM stock solutions in MeOH. A 30.0 μL aliquot of solution was then added to 3.000 mL of the appropriate solvent mixture (a combination of methanol and phosphate buffered saline—PBS) giving a final concentration of 10.0 μM for each complex. […] Glucose additions were performed by the addition of a concentrated solution of glucose in PBS to a stirred solution of fluorophore in a cuvette.

[2] = Cyclic voltammetry (glassy carbon, Ag/AgCl reference, 0.1 M NBu4ClO4 in acetonitrile); type: physicochemical; details: for first oxidation potential (amine) / first reduction potential: vs. Ag/AgCl; for Amine Oxidation Potential E° (D^+/D) / Fluorophore Reduction Potential E° (A/A^−): Ag/AgCl reference
Procedure: Samples for FT IR spectroscopy were prepared as solutions in CHCl3, and only the C═O stretches are reported. Unless otherwise stated, all NMR spectra were recorded at 500 MHz for ^1H and 125 MHz for ^13C at 20-25° C. using CDCl3 as the solvent. Unless stated otherwise, mass spectra were obtained using electrospray ionization (50 V) with a 50/50 methanol/water solvent mixture with ^1% acetic acid added. Cyclic voltammetry was conducted using a glassy carbon working electrode, platinum counter electrode, and Ag/AgCl reference electrode and carried out in a 0.1 M solution of NBu4ClO4 in acetonitrile.
(§1) Summarized Syntheses. As the syntheses are described as a series of analogous compounds with general procedures are given below. Cyclic voltammetry was conducted using a glassy carbon working electrode, platinum counter electrode, and Ag/AgCl reference electrode and carried out in a 0.1 M solution of NBu4ClO4 in acetonitrile. Samples for fluorescence were prepared as 1.00 mM stock solutions in MeOH. A 30.0 μL aliquot of solution was then added to 3.000 mL of the appropriate solvent mixture (a combination of methanol and phosphate buffered saline—PBS). Relative quantum yields were determined by the relative output of equimolar solutions of two compounds using 3ay as a reference. Glucose additions were performed by the addition of a concentrated solution of glucose in PBS to a stirred solution of the fluorescent molecule in methanol/PBS.
(§2) General. All reactions were performed under an atmosphere of N2, followed by work-up in air. Protected boronate esters were stored under vacuum to prevent slow hydrolysis from atmospheric moisture. Unless stated otherwise, all chemicals were purchased from commercial suppliers. Anhydrous solvents from Aldrich were used for all reactions. Starting compounds known in the art such as N-n-butyl-4-chloronaphthalene-1,8-dicarboximide(1ax), 2,2-dimethylpropane-1,3-diyl[o-(bromomethyl) phenyl]boronate, were prepared by literature methods (see e.g. Daffy et al. Chem-Eur J 1998, 4, 1810-1815; de Silva et al., Chem Rev 1997, 97, 1515-1566). Samples for FT IR spectroscopy were prepared as solutions in CHCl3, and only the C═O stretches are reported here. All mass spectra were obtained using electrospray ionization (ESI/MS) with an ionization potential of 50V and a solvent system consisting of 1% acetic acid in 50/50 methanol/water. Cyclic voltammetry was conducted using a glassy carbon working electrode, platinum counter electrode, and Ag/AgCl reference electrode and carried out in a 0.1 M solution of NBu4ClO4 in acetonitrile. Samples for fluorescence measurements were prepared as 1.00 mM stock solutions in MeOH. A 30.0 μL aliquot of solution was then added to 3.000 mL of the appropriate solvent mixture (a combination of methanol and phosphate buffered saline—PBS) giving a final concentration of 10.0 μM for each complex. Changes in pH were carried out by the addition of small volumes of concentrated hydrochloric acid, acetic acid, or sodium hydroxide. Glucose additions were performed by the addition of a concentrated solution of glucose in PBS to a stirred solution of fluorophore in a cuvette. Relative quantum yield measurements were carried out by measuring the relative intensities of equimolar solutions (10.0 μM) of two fluorophores. Compound 3ay was used as the reference.

[3] = Glucose testing of naphthalimide boronates by fluorescence; details: PBS buffer (pH 7.4)
From the text: The fluorescence spectra of compounds 3 have been obtained as a function of increasing glucose concentration. […] These values range from 9% to 16% over the four compounds, with the two lower values coming from the two compounds having secondary amino groups. These low values of fractional switching are more than balanced out by the high quantum yields for compounds 3az and 3cz. As a measure of the total signal increase for each system, the product of quantum yield and fractional fluorescence increase are given in Table 1, showing that 3cz is the most promising sensor candidate of the group, as expected.
as §1
as §2, with “A 30.0 μL aliquot of solution was then added to 3.000 mL of the appropriate solvent mixture (a combination of methanol and phosphate buffered saline—PBS) giving a final concentration of 10.0 μM for each complex. Changes in pH were carried out by the addition of small volumes of concentrated hydrochloric acid, acetic acid, or sodium hydroxide. Glucose additions were performed by the addition of a concentrated solution of glucose in PBS to a stirred solution of fluorophore in a cuvette. Relative quantum yield measurements were carried out by measuring the relative intensities of equimolar solutions (10.0 μM) of two fluorophores. Compound 3ay was used as the reference.” left out

[4] = Fluorescence spectra and relative quantum yields of naphthalimide boronates; type: physicochemical; details: for Emission λmax / Excitation λmax / Relative Quantum Yield: PBS buffer (pH 7.4); for Relative Quantum Yield: equimolar 10.0 μM solutions, 3ay as reference
From the text: Sample excitation and emission spectra are shown in FIG. 27 for 3ay and 3cy, along with fluorescence maxima in Table 1. Literature references indicate a higher quantum yield for secondary-amine naphthalimide derivatives than for tertiary amines in otherwise similar compounds. The pragmatic value of this gain was examined, weighing synthetic difficulty against measurable relative quantum yields.
as §1, §2

[5] = Rehm-Weller estimate of free energy of photoinduced electron transfer (PET); type: physicochemical; details: for ΔGPET: Rehm-Weller estimate; for λ00: average of excitation and emission maxima
From the text: The search for new fluorescent glucose transducers based on photoelectron transfer (PET) requires, among other things, an understanding of the electrochemistry of any potential donor-acceptor pair. The free energy of PET (ΔGel) can be calculated using the Rehm-Weller equation shown below:
ΔGel(kcal mol^−1)=23.06[E^0(D^+/D)−E^0(A/A^−)]−wp−wr−ΔG00 where E^0(D^+/D) is the oxidation potential of the donor, E^0(A/A^−) is the reduction potential of the acceptor, and ΔG00 is the free energy corresponding to the equilibrium energy E00 (see e.g. Kavarnos, G. J. In Fundamentals of photoinduced electron transfer, VCH Publishers: New York, N.Y., 1993; p Chapter 1 and Rehm and Weller, Ist. J. Chem. 1970, 8, 259). The quantities wp and wr are Coulombic terms for the products and reactants, and ate found to be small in polar solvents. To simplify predictions, we assume wp and wr to be zero, and estimate E00 as the energy corresponding to [λmax(ex)+λmax(em)]/2 for each fluorophore.
ΔGPET=23.06[E^0(Z^oxidation)−E^0(F^reduction)]−ΔE00],
The electrochemical potentials can be measured using the individual molecular groups before assembling the complete molecule.
Electrochemistry. The search for new fluorescent glucose transducers based on PET requires, among other things, an understanding of the electrochemistry of any potential donor-acceptor pair. The free energy of PET (ΔGel) can be calculated using the Rehm-Weller equation shown in eq 1, where E^0(D^+/D) is the oxidation potential of the […]
ΔGe(kcal mol^−1)=23.06[E^0(D^+/D)−E^0(A/A^−)]−wp−wr−ΔG00 (1) donor, E^0(A/A^−) is the reduction potential of the acceptor, and ΔG00 is the free energy corresponding to the equilibrium energy E00. The quantities wp and wr are Coulombic terms for the products and reactants, and are found to be small in polar solvents. In our case, wr=0 since the reactants are neutral. To simplify predictions, we assume wp to be zero and estimate E00 as the energy corresponding to [λmax(ex)+λmax(em)]/2 for each fluorophore. […]
it is possible to estimate the free energy of photoinduced electron transfer (PET) in these systems (see e.g. Kavamos, G. J. Fundamentals of Photoinduced Electron Transfer, VCH: New York, 1993; pp 37-40). E0(D^+/D) and E^0(A/A^−) correspond to the […] of the electron donor (i.e. amine) and electron acceptor (i.e. fluorophore), respectively. The quantity ΔG00, is the equilibrium energy, which we estimate as the energy corresponding to the equilibrium wavelength λ00. As an estimate of λ00, we use the average of the excitation and emission maxima for each fluorophore. Smaller solvent-dependent work terms for the Coulombic interaction between the reactants and products are left out for simplicity. Since the mechanism of fluorescence switching in these systems depends on PET, this gives us a rough estimate of which fluorophores should give the best response to glucose.

[6] = vs. SCE, literature data for parent complexes; cited from earlier work

Row | Compound | change in fluorescence [1] [%] | first oxidation potential (amine) [2] [V] | first reduction potential [2] [V] | Amine Oxidation Potential E° (D^+/D) [2] [V] | Fluorophore Reduction Potential E° (A/A^−) [2] [V] | Fluorescence Intensity Increase with added glucose (0 to 600 mg dL^−1) [3] [%] | Emission λmax [4] [nm] | Excitation λmax [4] [nm] | Relative Quantum Yield [4] | ΔGPET [5] [kcal/mol] | λ00 [5] [nm] | reduction potential [6] [V] | expected ΔGel ([5]; from literature reduction potentials of parent complexes) [kcal/mol] | signal increase ([1]; drop from pH 7 to pH 2) [%] | change in quantum yield or wavelength maximum on removal of the THP protecting group [4]
1 | CCN(CC)Cc1ccnc(-c2cc(C)ccn2)c1.O=S(=O)([O-])C(F)(F)F.[C-]#[O+].[C-]#[O+].[C-]#[O+].[Re+].c1ccncc1 [(bpyCH2NEt2)Re(CO)3(py)](OTf), reference compound] | 61 | 1.35 | −1.20 | – | – | – | – | – | – | – | – | – | – | – | –
2 | N-n-Butyl-4-(N′-methylaminoethylene-N″-ArBmethylamino)naphthalene-1,8-dicarboximide [Compound 3ay] | – | – | – | 0.91 | −1.48 | 16 | 535 | 420 | 1 | -4.8 | 478 | – | – | – | –
3 | [Cl][Ru][Cl].c1ccc(-c2ccccn2)nc1.c1ccc(-c2ccccn2)nc1.c1ccc(-c2ccccn2)nc1 [[Ru(bpy)3]Cl2, reference compound] | – | – | – | – | – | – | – | – | – | – | – | −1.31 | 12.5 | – | –
4 | N-(5′-Tetrahydropyranoxypentyl)-4-(N′-methylaminoethylene-N″-ArBmethylamino)naphthalene-1,8-dicarboximide [Compound 3cy] | – | – | – | 0.93 | −1.47 | 13 | 525 | 415 | 1.32 | -5.5 | 470 | – | – | – | –
5 | Cc1ccnc(-c2cc(CN(C)Cc3ccccc3)ccn2)c1.O=S(=O)([O-])C(F)(F)F.[C-]#[O+].[C-]#[O+].[C-]#[O+].[Re+].c1ccncc1 [[(bpyN)Re(CO)3(py)](OTf)] | 930 | 1.34 | −1.20 | – | – | – | – | – | – | – | – | – | – | 21 | –
6 | N-n-Butyl-4-(N′-aminoethylene-N″-ArBmethylamino)naphthalene-1,8-dicarboximide [Compound 3az] | – | – | – | 1.05 | −1.48 | 9 | 535 | 435 | 44.2 | -0.62 | 485 | – | – | – | –
7 | N-(5′-Tetrahydropyranoxypentyl)-4-(N′-aminoethylene-N″-ArBmethylamino)naphthalene-1,8-dicarboximide [Compound 3cz] | – | – | – | 1.00 | −1.53 | 10 | 525 | 435 | 51.2 | -1.2 | 480 | – | – | – | no significant change
